Measured values from ChEMBL document CHEMBL3217439, “Deciphering intracellular targets of organochalcogen based redox catalysts” (Medchemcomm, 2012).
Activity calls are given as the source filed them.

Legend:
HUVEC [1] = assay: Increase in ROS production in HUVEC at after 1 hr by DCF assay; assay type: functional, cell-based; conditions: Homo sapiens
Klebsiella pneumoniae = assay: Antimicrobial activity against Klebsiella pneumoniae after 1 to 2 days by agar diffusion assay; assay type: functional, organism-based
L929 = assay: Cytotoxicity against mouse L929 cells after 18 hrs by MTT assay; assay type: functional, cell-based; conditions: L929, 18 h
[2] = Depletion of actin filaments in Potorous tridactylus PtK2 cells at IC90 by microscopy; assay type: cell-based
HCT-116 = assay: Cytotoxicity against human HCT116 cells after 18 hrs by MTT assay; assay type: functional, cell-based; conditions: HCT-116, 18 h
[3] = Depletion of microtubules in Potorous tridactylus PtK2 cells at IC90 by microscopy; assay type: cell-based
A-431 [4] = assay: Increase in ROS production in human A431 cells at after 1 hr by DCF assay; assay type: functional, cell-based
Tubulin (Sus scrofa) [5] = molecular target: T1, Tubulin (Sus scrofa) (UniProt P02554+P02550); assay: Binding affinity to pig brain tubulin at IC90 after 2 hrs by DARTS-Western blot method
T1 sequence (P02550 whole entry, looked up): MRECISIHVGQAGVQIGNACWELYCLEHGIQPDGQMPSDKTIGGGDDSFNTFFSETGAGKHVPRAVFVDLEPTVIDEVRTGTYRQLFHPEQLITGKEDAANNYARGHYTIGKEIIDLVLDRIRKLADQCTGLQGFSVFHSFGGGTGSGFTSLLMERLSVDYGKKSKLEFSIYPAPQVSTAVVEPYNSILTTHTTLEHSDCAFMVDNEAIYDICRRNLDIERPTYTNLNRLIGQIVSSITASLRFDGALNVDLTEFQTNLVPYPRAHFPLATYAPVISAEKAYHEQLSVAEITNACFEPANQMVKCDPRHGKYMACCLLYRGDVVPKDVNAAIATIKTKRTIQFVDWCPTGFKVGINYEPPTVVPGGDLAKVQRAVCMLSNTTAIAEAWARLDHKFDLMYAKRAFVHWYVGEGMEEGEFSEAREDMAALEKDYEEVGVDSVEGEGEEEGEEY
T1 sequence (P02554 whole entry, looked up): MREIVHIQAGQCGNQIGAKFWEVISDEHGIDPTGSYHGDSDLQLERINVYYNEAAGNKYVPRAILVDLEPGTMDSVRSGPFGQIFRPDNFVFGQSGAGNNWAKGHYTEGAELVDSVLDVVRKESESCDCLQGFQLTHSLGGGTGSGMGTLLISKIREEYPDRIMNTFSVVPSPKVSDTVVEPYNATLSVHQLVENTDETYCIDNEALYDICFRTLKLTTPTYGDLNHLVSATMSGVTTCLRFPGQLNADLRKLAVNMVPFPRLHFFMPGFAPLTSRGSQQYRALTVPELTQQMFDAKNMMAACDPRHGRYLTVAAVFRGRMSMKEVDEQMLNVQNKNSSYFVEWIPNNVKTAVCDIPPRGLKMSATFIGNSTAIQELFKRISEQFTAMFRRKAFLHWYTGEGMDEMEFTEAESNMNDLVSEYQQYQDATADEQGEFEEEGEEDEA

A-431 [6] = assay: Induction of apoptosis in human A431 cells at 12 ug/ml after 16 hrs using annexin V/propidium iodide by flow cytometry; assay type: functional, cell-based
Escherichia coli [7] = assay: Antimicrobial activity against Escherichia coli expressing tolC after 1 to 2 days by agar diffusion assay; assay type: functional, organism-based
Micrococcus luteus = assay: Antimicrobial activity against Micrococcus luteus after 1 to 2 days by agar diffusion assay; assay type: functional, organism-based
[8] = system: Globisporangium debaryanum; assay: Antimicrobial activity against Pythium debaryanum after 1 to 2 days by agar diffusion assay; assay type: functional, organism-based
A-431 [9] = assay: Cytotoxicity against human A431 cells after 18 hrs by MTT assay; assay type: functional, cell-based; conditions: A-431, 18 h
Mycolicibacterium phlei = assay: Antimicrobial activity against Mycobacterium phlei after 1 to 2 days by agar diffusion assay; assay type: functional, organism-based
[10] = Inhibition of rabbit actin polymerization by spectrophotometry; parameters: species or system Oryctolagus cuniculus
[11] = Cytotoxicity against human KB3-1 cells after 18 hrs by MTT assay; assay type: functional, cell-based; conditions: KB 3-1, 18 h
[12] = Cytotoxicity against Potorous tridactylus PtK2 cells after 18 hrs by MTT assay; assay type: functional, cell-based; conditions: PtK2, 18 h
Oryctolagus cuniculus [13] = organism: Oryctolagus cuniculus; assay: Binding affinity to rabbit actin polymerization after 2 hrs by DARTS-Western blot method
A-431 [14] = assay: Induction of apoptosis in human A431 cells at 10 ug/ml after 16 hrs using annexin V/propidium iodide by flow cytometry; assay type: functional, cell-based
Tubulin = Tubulin (Sus scrofa, UniProt P02554+P02550); assay: (§1) Inhibition of pig brain tubulin polymerization by spectrophotometry
HUVEC [15] = assay: Increase in ROS production in HUVEC at after 1 hr by DHE assay; assay type: functional, cell-based; conditions: Homo sapiens
Tubulin (Sus scrofa) [16] = molecular target: T1, Tubulin (Sus scrofa); assay: Binding affinity to pig brain tubulin after 2 hrs by DARTS-Western blot method; assay type: tissue-based
Wickerhamomyces anomalus = assay: Antimicrobial activity against Hansenula anomala after 1 to 2 days by agar diffusion assay; assay type: functional, organism-based
Pseudomonas aeruginosa = assay: Antimicrobial activity against Pseudomonas aeruginosa after 1 to 2 days by agar diffusion assay; assay type: functional, organism-based
Botrytis cinerea = assay: Antimicrobial activity against Botrytis cinerea after 1 to 2 days by agar diffusion assay; assay type: functional, organism-based
Staphylococcus aureus = assay: Antimicrobial activity against Staphylococcus aureus after 1 to 2 days by agar diffusion assay; assay type: functional, organism-based
Aspergillus niger = assay: Antimicrobial activity against Aspergillus niger after 1 to 2 days by agar diffusion assay; assay type: functional, organism-based
A-431 [17] = assay: Induction of apoptosis in human A431 cells assessed as caspase3/7 activation at 2.6 uM after 5 to 25 mins by luminescence assay; assay type: functional, cell-based
Escherichia coli [18] = assay: Antimicrobial activity against Escherichia coli A1 after 1 to 2 days by agar diffusion assay; assay type: functional, organism-based
A-431 [19] = assay: Reduction in ATP level in human A431 cells assessed as cell viability after 10 mins by Cell Titer Glo luminescent assay; assay type: functional, cell-based
HUVEC [20] = assay: Cytotoxicity against HUVEC after 18 hrs by MTT assay; assay type: functional, cell-based; conditions: Homo sapiens
Oryctolagus cuniculus [21] = organism: Oryctolagus cuniculus; assay: Binding affinity to rabbit actin polymerization at IC90 after 2 hrs by DARTS-Western blot method
A-431 [22] = assay: Increase in ROS production in human A431 cells at after 1 hr by DHE assay; assay type: functional, cell-based
Tubulin (Sus scrofa) [23] = molecular target: T1, Tubulin (Sus scrofa); assay: as §1
Oryctolagus cuniculus [24] = organism: Oryctolagus cuniculus; assay: Binding affinity to rabbit actin polymerization at IC50 after 2 hrs by DARTS-Western blot method
Tubulin (Sus scrofa) [25] = molecular target: T1, Tubulin (Sus scrofa); assay: Binding affinity to pig brain tubulin at IC50 after 2 hrs by DARTS-Western blot method

CC1=C([Te]c2ccccc2)C(=O)c2ccccc2C1=O
30 µM: IC50 [10]
5 µM: IC50 (A-431 [9])
active: Activity (HUVEC [1]) Dose-dependent effect | Activity (Klebsiella pneumoniae) | Activity [2] | Activity [3] | Activity (A-431 [4]) Dose-dependent effect | Activity (Tubulin (Sus scrofa) [5]) | Activity (A-431 [6]) | Activity (Escherichia coli [7]) | Activity (Micrococcus luteus) | Activity [8] | Activity (Mycolicibacterium phlei) | Activity (Oryctolagus cuniculus [13]) Dose-dependent effect | Activity (A-431 [14]) | Activity (HUVEC [15]) Dose-dependent effect | Activity (Tubulin (Sus scrofa) [16]) Dose-dependent effect | Activity (Wickerhamomyces anomalus) | Activity (Botrytis cinerea) | Activity (Staphylococcus aureus) | Activity (Aspergillus niger) | Activity (A-431 [17]) | Activity (Escherichia coli [18]) | Activity (A-431 [19]) | Activity (Oryctolagus cuniculus [21]) | Activity (A-431 [22]) Dose-dependent effect
1.3 µM: IC50 [11]
9 µM: IC50 [12]
15 µM: IC50 (Tubulin)
inactive: Activity (Pseudomonas aeruginosa)
5.3 µM: IC50 (HCT-116)
9.5 µM: IC50 (HUVEC [20])
11 µM: IC50 (L929)

O=C1C([Te]c2ccccc2)=C([Te]c2ccccc2)C(=O)c2ccccc21
0.25 µM: IC50 [11]
active: Activity (HUVEC [1]) Dose-dependent effect | Activity (Klebsiella pneumoniae) | Activity [2] | Activity (A-431 [4]) Dose-dependent effect | Activity (A-431 [6]) | Activity (Escherichia coli [7]) | Activity (Micrococcus luteus) | Activity [8] | Activity (Mycolicibacterium phlei) | Activity (A-431 [14]) | Activity (HUVEC [15]) Dose-dependent effect | Activity (Wickerhamomyces anomalus) | Activity (Botrytis cinerea) | Activity (Staphylococcus aureus) | Activity (Oryctolagus cuniculus [24]) | Activity (Aspergillus niger) | Activity (A-431 [17]) | Activity (Escherichia coli [18]) | Activity (A-431 [19]) | Activity (A-431 [22]) Dose-dependent effect
5.1 µM: IC50 (HUVEC [20])
7.2 µM: IC50 [12]
5.4 µM: IC50 (HCT-116)
4.4 µM: IC50 (A-431 [9])
5.8 µM: IC50 (L929)
30 µM: IC50 [10]
inactive: Activity [3] | inhibition (Tubulin (Sus scrofa) [23]) | Activity (Pseudomonas aeruginosa) | Activity (Tubulin (Sus scrofa) [25])

CC[C@@H](C)[C@H](NC(=O)[C@H]1CCCCN1C)C(=O)N(COC(=O)CC(C)C)[C@H](C[C@@H](OC(C)=O)c1nc(C(=O)N[C@@H](Cc2ccc(O)cc2)C[C@H](C)C(=O)O)cs1)C(C)C
active: Activity (Tubulin (Sus scrofa) [16])

COC1CC(O)/C=C/C=C/C=C\C(C)C(C(C)C(O)CC(C)O)OC(=O)/C=C/C=C/C=C/C(C)=C/C(C)C(O[C@H]2O[C@H](C)[C@@H](O)[C@H](OC)[C@H]2OC)/C=C\C=C\c2coc(n2)C1C (stereo partly specified)
active: Activity (Oryctolagus cuniculus [24])
